# From patent US20130142866A1, “COMPOSITIONS AND METHODS FOR IMPROVED ORGAN TRANSPLANT PRESERVATION AND ACCEPTANCE” (NOVALIQ GMBH, priority 2010, published 2013)
# Entries after “also recorded” stand apart in the source; their conditions may differ.
# What was measured:
# [1] = tested on: freshly isolated T-cells; experiment: T-cell proliferation, anti-CD3/anti-CD28 activation, 3H-thymidine incorporation; format: cell-based
# Protocol: A cell-culture system was used in which freshly isolated T-cells were polyclonally activated by anti-CD3/anti-CD28 beads. The cells were allowed to proliferate for at least 10 days in the presence or absence of different dilutions of the composition of the invention. T-cell proliferation was assessed on day 3, 5, 7 and 10 by means of 3H-thymidine incorporation. In this model, T-cell proliferation is maximal at day 3 and gradually declines at day 10.
# The experiments were repeated, except that freshly isolated T-cells were stimulated with anti-CD3/antio-CD28 antibodies in the presence of the composition diluted to a concentration of 50 μM of N-octanoyl dopamine and various concentrations of ciclosporin A or tacrolimus. Similar concentrations of ciclosporin A or tacrolimus were also tested in the absence of the composition.
# [2] = Compatibility with organ preservation solutions (UW, HTK); format: physicochemical; settings: usual behaviour, leading to brownish-pink colour
# Protocol: Two samples of the formulation of example 4 having a N-octanoyl dopamine concentration of 11.16 mg/mL were individually mixed with either University of Wisconsin solution (Viaspan, or UW) or histidine-tryptophan-ketoglutarate (HTK) solution (Custodiol) at a volume ratio of 1:4 (1 part of the inventive composition plus 4 parts of the conventional solution).
# [3] = tested on: Human umbilical vein endothelial cells (HUVEC) stimulated with TNF-α; experiment: TNF-α-mediated inflammation in HUVEC (gene expression profiling, qPCR, Western blotting, NF-κB activation); format: cell-based
# Protocol: Human umbilical vein endothelial cells (HUVEC) were stimulated with TNF-α (tumour-necrosis-factor alpha) in the absence or presence of various concentrations of the N-octanoyl dopamine formulation. Affymetrix Gene Expression Profiling, quantitative PCR, Western-blotting and NF-κB activation were performed to assess the anti-inflammatory potential of the composition of the invention. As a comparator, a surfactant-free aqueous dispersion of N-octanoyl dopamine, which is not an embodiment of the invention, was also tested.
# [4] = Solubilisation of N-octanoyl dopamine by polysorbates; format: physicochemical; settings: 0.5 wt.-% polysorbate 20 or polysorbate 80 solution, aqueous with cosolvent or surfactant or cyclodextrin; 0.5 wt.-% polysorbate 20 or polysorbate 80, individually; read-out: amount of N-octanoyl dopamine solubilised
# Description: In one particular embodiment, the amount of amphiphilic excipient is at least about 0.05 wt.-%. According to a further embodiment, the amount is from about 0.1 wt.-% to about 30 wt.-%, or from about 0.5 wt.-% to about 20 wt.-%, respectively. […] However, if the composition is to be used as a concentrate to be added to a commercial solution for tissue and organ preservation, the concentrate itself may also comprise the amphiphilic excipient at a relatively high concentration, taking into account the dilution factor. In a further embodiment, the ratio of N-octanoyl dopamine to the amphiphilic excipient is selected in the range from about 5:1 to about 1:50.
# [5] = tested on: Cardiomyocytes; experiment: Cold storage injury of cardiomyocytes (ATP, LDH release, contraction rate); format: cell-based, rats
# Protocol: Cardiomyocytes were freshly isolated from new born rats and cultured for 3 days. […] ATP levels and LDH release was measured after 8 hours of cold preservation and hereafter cardiomyocytes were re-warmed and the contraction rate per well and ATP regeneration were determined.
smiles,measurement,setting,value
"CCCCCCCC(=O)NCCc1ccc(O)c(O)c1 [N-octanoyl dopamine, N-octanoyl-4-(2-aminoethyl)benzene-1,2-diol]",T-cell proliferation,[1]; 25 μM N-octanoyl dopamine,without effect
same,T-cell proliferation,[1]; 50 μM N-octanoyl dopamine,inhibited T-cell proliferation at day 3; also recorded: only partly inhibited T-cell proliferation at day 3 but not thereafter
same,reduction of the amount of calcineurin inhibitor required for complete T-cell suppression,[1]; 50 μM N-octanoyl dopamine,at least 1000 fold
same,T-cell proliferation,[1]; 100 μM N-octanoyl dopamine,"inhibited at day 3, day 5 and partly at day 7"
same,NFκB and AP-1 in T-cells,[1]; downstream of early T-cell receptor signalling events,inhibition
same,inhibition of T-cell proliferation after oxidation / without redox activity,"[1]; oxidation of N-octanoyl dopamine, or compounds lacking redox activity",abrogated
same,oxidation of N-octanoyl dopamine when mixed with UW or HTK,[2],occurs very rapidly
same,HO-1 expression,[3],strongly upregulated
same,concentration at which HO-1 was significantly induced,[3],1 µM
same,concentration required for inhibition of VCAM-1 expression,[3],50 µM
same,solubility,[4],40 mM
"C=CC[C@@H]1/C=C(\C)C[C@H](C)C[C@H](OC)[C@H]2O[C@@](O)(C(=O)C(=O)N3CCCC[C@H]3C(=O)O[C@H](/C(C)=C/[C@@H]3CC[C@@H](O)[C@H](OC)C3)[C@H](C)[C@@H](O)CC1=O)[C@H](C)C[C@@H]2OC [tacrolimus, reference compound]",concentration of maximal inhibition of T-cell proliferation,"[1]; calcineurin inhibitor alone, absence of the composition",1 µM
same,ciclosporin A or tacrolimus concentration still giving complete inhibition of T-cell proliferation,[1]; in the presence of 50 μM N-octanoyl dopamine,1 nM
NCCc1ccc(O)c(O)c1 [dopamine],LDH-release after cold storage,"[5]; 8 hours at 4° C., FIG. 2",inhibited
same,ATP level after cold storage,"[5]; 8 hours at 4° C., compared with untreated cells, FIG. 1",dose-dependent mitigation of ATP loss
same,regeneration of ATP after re-warming,"[5]; after 8 hours at 4° C., compared to untreated cells",much faster
same,contraction rate after re-warming,"[5]; after 8 hours at 4° C., treated cells",significantly improved rate
